In ChEMBL document CHEMBL3632590, “Development of Safe and Effective Botanical Dietary Supplements” (J Med Chem, 2015):

Experiments:
Cytochrome P450 2D6 = Cytochrome P450 2D6 (Homo sapiens, UniProt P10635); experiment: Competitive inhibition of CYP2D6 (unknown origin) using dextromethorphan substrate; type: ADME
[1] = Terminal half life in orally dosed human by LC-MS/MS method; type: ADME, organism-based; details: in vivo, po, read-out: beta t1/2
[2] = Oral bioavailability in human; type: ADME, organism-based; details: in vivo
[3] = Terminal half life in human at 60 mg, po by LC-MS/MS method; type: ADME, organism-based; details: in vivo, read-out: beta t1/2 (converted)

Sequence of Cytochrome P450 2D6 (P10635 whole entry): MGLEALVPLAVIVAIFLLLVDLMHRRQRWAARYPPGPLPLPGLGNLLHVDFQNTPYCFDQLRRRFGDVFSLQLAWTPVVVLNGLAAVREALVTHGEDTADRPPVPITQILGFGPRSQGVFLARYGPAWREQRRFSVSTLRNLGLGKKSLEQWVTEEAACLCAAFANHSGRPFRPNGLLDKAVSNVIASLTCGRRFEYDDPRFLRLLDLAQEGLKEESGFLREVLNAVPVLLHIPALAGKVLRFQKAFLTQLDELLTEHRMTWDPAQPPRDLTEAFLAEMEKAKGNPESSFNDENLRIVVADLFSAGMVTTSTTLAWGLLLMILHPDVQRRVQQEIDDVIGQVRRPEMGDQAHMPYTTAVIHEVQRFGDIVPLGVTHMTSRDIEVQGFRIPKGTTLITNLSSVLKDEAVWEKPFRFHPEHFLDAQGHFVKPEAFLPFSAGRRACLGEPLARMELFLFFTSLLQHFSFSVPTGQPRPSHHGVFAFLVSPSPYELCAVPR

Row | half-life [1] | bioavailability [2] | half-life [3] | Compound | Ki (Cytochrome P450 2D6)
1 |  |  |  | COc1ccc2c(c1OC)CN(C)CCc1cc3c(cc1C(=O)C2)OCO3 [ALLOCRYPTOPINE] | 122 nM
2 | < 2 h | < 0.5% |  | COc1cc([C@H]2Oc3cc([C@H]4Oc5cc(O)cc(O)c5C(=O)[C@@H]4O)ccc3O[C@@H]2CO)ccc1O [SILYBIN A] | 
3 | < 2 h | < 0.5% |  | COc1cc([C@@H]2Oc3cc([C@H]4Oc5cc(O)cc(O)c5C(=O)[C@@H]4O)ccc3O[C@H]2CO)ccc1O [SILYBIN B] | 
4 |  |  | 20 h | CC(C)=CCc1c(O)cc(O)c2c1OC(c1ccc(O)cc1)CC2=O (configuration not stated) [SOPHORAFLAVANONE B] | 
5 |  |  | 20 h | COc1cc(O)c(CC=C(C)C)c(O)c1C(=O)/C=C/c1ccc(O)cc1 [XANTHOHUMOL] | 
